Test system: TCRV (strain TRVL 11573)
Set-up: species or system AG129 mice
Conditions: mouse, in vivo

## NC(=O)c1ncn([C@@H]2O[C@H](CO)[C@@H](O)[C@H]2O)n1 [Ribavirin, ribavirin]
  Infectious TCRV Liver: 4.3, 3.5 log10 CCID50/mL
  Infectious TCRV Serum: 2.5, ND log10 CCID50/mL
  Infectious TCRV Spleen: 6.1, 5.5 log10 CCID50/mL
  survival: 82%
  viral loads on day 9 p.i. compared to placebo: only modestly reduced viral loads
